Laboratory results: patent publication US11154480B2, “Shaping keratin fibres using a sugar” (The Procter & Gamble Company, priority 2013, dated 2021)

Columns and labels:
[1] = Benedict's Test for reducing sugars; format: physicochemical
Text: As used herein, “reducing sugar” means any sugar that either has an aldehyde group or is capable of forming an aldehyde group in solution through isomerism, and that gives a positive result in the Benedict's test. An aldehyde group is —C(═O)H. The aldehyde group is important in view of reacting with and crosslinking the hair. The Benedict's test involves employment of the Benedict's solution. The Benedict's solution is available from Sigma Aldrich as ‘Benedict's Reagent’, which comprises sodium carbonate, copper sulphate pentahydrate and 2,5-difluorotoluene. In the Benedict's test, 1 mL of Benedict's solution is added to a 20 mL of 5% aqueous solution comprising a dissolved test compound. Benedict's solution contains blue copper(II) ions (Cu^2+). The solution is heated to 80° C. for 15 min and the resulting colour change is noted. The cupric ion of the Benedict's solution is reduced to cuprous ion by the aldehyde of the sugar. A positive Benedict's test result is confirmed with a change in colour as cupric ions (Cu^2+) are converted to cuprous ions i.e. reduced to copper(I) ions (Cu^+). These are precipitated as red copper(I) oxide which is insoluble in water. The test is also designed for longer heating time and higher temperature to note any colour change. The solution may range in colour (with increasing amounts of reducing sugar) from green, through yellow and orange, to red. […] The wavelength of light reflected by the solution will change with the colour. In at least one embodiment, a positive Benedict's test result is when the solution emits light not peaking with a wavelength in the range of 450 nm to 495 nm. In at least one embodiment, a positive Benedict's test result is when the solution emits light peaking with a wavelength in the range of 620 nm to 750 nm. This can be measured using a spectrophotometer.
In the art, the Benedict's reagent is used as a test for the presence of reducing sugars. This includes all monosaccharides and many disaccharides, including lactose and maltose. Even more generally, Benedict's test will detect the presence of aldehydes, and alpha-hydroxy-ketones, including those that occur in certain ketoses. Thus, although fructose, a ketose, is not strictly a reducing sugar, it is an alpha-hydroxy-ketone, it gives a positive test because it is converted to the aldoses glucose and mannose by the base in the reagent. The copper sulphate in Benedict's solution reacts with reducing sugars. One litre of Benedict's reagent can be prepared from 100 g of anhydrous sodium carbonate, 173 g of sodium citrate and 17.3 g of copper(II) sulfate pentahydrate. Benedict's Reagent provides a quantitative test for reducing sugars along with qualitative test. The colour of the obtained precipitate gives an idea about the quantity of sugar present in the solution. A greenish precipitate indicates about 0.5% concentration; yellow precipitate indicates 1% concentration; orange indicates 1.5% and red indicates 2% or higher concentration. A positive result in the Benedict's test can be recognised for a compound by a 5% (weight/weight) solution of compound in water as a red colouring. The aldehyde group of the sugar allows the sugar to act as a reducing agent, for example in the Benedict's test.

[2] = as known in the art; converted to aldoses by the base in the reagent; cited from earlier work
[3] = 80° C., 15 min, 5% aqueous solution of test compound

| Structure (SMILES) | Assessment of sugars using the Benedict's Test [1, 3] | Assessment of sugars using the Benedict's Test ([1]; 100° C., 40 min) | Benedict's test result [2] |
| --- | --- | --- | --- |
| O=C[C@@H](O)[C@H](O)[C@H](O)CO [Arabinose] | Positive | Positive | – |
| CO[C@H]1OC(CO)[C@H](O)[C@@H](O)[C@@H]1O (stereo partly shown) [Methyl glucoside] | Negative | Positive | – |
| O=C[C@H](O)[C@H](O)[C@H](O)CO [Ribose] | Positive | Positive | – |
| O=C(CO)[C@@H](O)[C@H](O)[C@H](O)CO [Fructose] | Positive | Positive | positive |

More lines, main results first:

| Assessment of sugars using the Benedict's Test [1, 3] | Assessment of sugars using the Benedict's Test ([1]; 100° C., 40 min) | Structure (SMILES) | Benedict's test result [2] |
| --- | --- | --- | --- |
| Positive | Positive | O=C[C@H](O)[C@@H](O)[C@H](O)CO [Xylose] | – |
| Negative | Positive | OC[C@H]1O[C@@](CO)(O[C@H]2O[C@H](CO)[C@@H](O)[C@H](O)[C@H]2O)[C@@H](O)[C@@H]1O [Sucrose] | – |
